Structures can show the parent of a compound that is named as a salt.
Tested on: kidney
Assay: Transcriptional profiling on Affymetrix GeneChips, single dose, naïve mice: kidney
Type: in vivo, C57BL/6 mice
Settings: kidney; 100MMF-vs-Veh, 12 h
Experimental: Treated mice were sacrificed at 2, 7, or 12 hours. Tissues (liver, spleen, kidney, jejunum, cortex, hippocampus, striatum and whole blood) were collected and analyzed by transcriptional profiling on mouse Affymetrix GeneChips.
Tissues (liver, spleen, kidney, jejunum, cortex, hippocampus, striatum and whole blood) were collected and analyzed by transcriptional profiling on mouse Affymetrix GeneChips.
Animals were exposed to CO2 and whole blood collected via cardiac puncture. Two 100 μl aliquots of whole blood were collected in 1.5 mL microcentrifuge tubes and snap frozen in liquid nitrogen. Peripheral (liver, spleen, kidney and jejunum) and CNS brain (cerebellum, hippocampus, striatum and cortex) tissues were harvested and snap frozen in liquid nitrogen, with special care taken to collect tissues of similar size and from the same location. All samples were stored at −80° C. until RNA extraction was conducted.
For RNA preparation, frozen tissues were placed in 2 mL RNAse-free 96-well blocks with 1.5 mL QIAzol Lysis Reagent (QIAgen) and a 3.2 mm stainless steel bead (BioSpec Products, Bartlesville, Okla.). Tissues were disrupted for four cycles of 45 seconds in a Mini-Beadbeater (Biospec Products). RNA was extracted in chloroform and the aqueous phase was mixed with an equal volume of 70% ethanol. Extracted RNA was applied to RNeasy 96 plates and purified by the spin method according to the manufacturer's protocol (RNeasy 96 Universal Tissue Protocol, QIAgen, Hilden Germany).
Automated sample amplifications and biotin labelings were carried out using the NuGEN Ovation RNA Amplification system V2 (Cat #3100), Ovation WB reagent (Cat #1300) and Encore Biotin module (Cat #4200) (NuGEN Technologies, Inc, San Carlos, Calif.) according to manufacturer's recommendations using an Arrayplex automated liquid handler (Beckman Coulter, Indianapolis, Ind.). Two micrograms of biotin labeled sscDNA probe were hybridized to Affymetrix GeneChip Affymetrix HT_MG-430_PM plate arrays with modified conditions as described in Allaire et al. Washing and staining of the hybridized arrays were completed as described in the GeneChip Expression analysis technical manual for HT plate arrays using the Genechip® Array Station (Affymetrix, Santa Clara, Calif.) with modifications as described in Allaire et al. The processed GeneChip® plate arrays were scanned using GeneTitan scanner (Affymetrix, Santa Clara, Calif.).
Affymetrix scans were subject to quality control (QC) measures. These tests included a visual inspection of the distribution of raw signal intensities and an assessment of RNA degradation, relative log expression (RLE), and normalized unsealed standard error (NUSE). All sample scans that passed these QC metrics were included in the analysis.
All CEL files were subjected to GC-content-based Robust Multi-array Average (GCRMA) normalization (version 2.20.0) (Irizarry R A, et al. Nucleic Acids Res 2003; 31:e15; Li C, et al. Genome Biol 2001; 2:[…]0032). Expression levels were log (base 2) transformed.
All calculations and analyses were carried out using R (version 2.11.1) and Bioconductor computational tools (Gentleman R. Springer Science+Business Media 2005).

COC(=O)/C=C/C(=O)O [MMF, monomethyl fumarate]
FC 9130221J18Rik (1446368_PM_at): −1.53
FC AB099516 /// Higd1c (1447356_PM_at): −1.57
FC Abcc3 (1428988_PM_at): 1.64
FC Abcc4 1443870_PM_at: 2.07
FC Acot1 (1449065_PM_at): 1.59
FC Acsm2 (1427224_PM_at): −1.52
FC Agps 1434919_PM_at: −1.80
FC Akr1b8 (1448894_PM_at): 1.68
FC Akr1c19 (1455454_PM_at): 2.00
FC Alas1 1424126_PM_at: 2.02
FC Alas1 (1455282_PM_x_at): 1.70
FC Alcam 1426300_PM_at: 2.83
FC Alcam 1426301_PM_at: 2.09
FC Alcam 1437467_PM_at: 1.93
FC Arg2 (1438841_PM_s_at): 2.63
FC Arhgap26 (1440688_PM_at): −1.57
FC Asns 1433966_PM_x_at: 2.49
FC Asns 1451095_PM_at: 2.87
FC Atp13a3 1442145_PM_at: 1.62
FC B4galt5 (1433617_PM_s_at): −1.51
FC BC060267 (1441979_PM_at): 1.74
FC Bcat1 1430111_PM_a_at: −2.07
FC Bcat1 1450871_PM_a_at: −2.20
FC Bcat1 1455699_PM_at: −2.27
FC Blvrb (1451386_PM_at): 2.23
FC C3 (1423954_PM_at): 2.34
FC C8a (1428012_PM_at): −1.51
FC Cbr1 (1460196_PM_at): 2.10
FC Cbr3 (1427912_PM_at): 7.02
FC Cdkn1a (1424638_PM_at): 2.73
FC Chrdl1 (1456722_PM_at): −1.55
FC Cldn1 (1437932_PM_a_at): 1.57
FC D16Ertd778e 1445089_PM_at: −2.25
FC Dcdc2a (1459661_PM_at): 1.69
FC Dnase2a (1430135_PM_at): 2.15
FC Dpys (1436291_PM_a_at): 1.51
FC Endou 1449937_PM_at: 1.89
FC Ep400 (1449610_PM_at): −1.67
FC Esr1 1460591_PM_at: −1.54
FC Esr1 (1435663_PM_at): −1.75
FC Fga (1424279_PM_at): 1.79
FC Fgf1 1450869_PM_at: −1.58
FC G6pdx (1448354_PM_at): 1.70
FC Gclc (1455959_PM_s_at): 1.64
FC Gjb1 1448766_PM_at: 1.81
FC Gjb1 (1448767_PM_s_at): 1.67
FC Gm5101 (1442588_PM_at): −1.50
FC Gpr135 1441944_PM_s_at: 1.59
FC Gpr135 1459274_PM_at: 1.65
FC Gpt (1426502_PM_s_at): 1.51
FC Gstm1 (1425627_PM_x_at): 1.56
FC Gstm1 (1448330_PM_at): 1.54
FC Gstm4 (1424835_PM_at): 1.70
FC Gstp1 (1449575_PM_a_at): 1.54
FC Havcr1 1434716_PM_at: 4.79
FC Hfe 1450702_PM_at: 1.67
FC Hist1h1c (1438204_PM_at): 1.82
FC Hist1h2be 1440330_PM_at: 2.92
FC Hist1h2be (1445565_PM_at): 2.48
FC Ikbkg 1435646_PM_at: 1.76
FC Ikbkg 1454690_PM_at: 1.54
FC Kif20b 1439695_PM_a_at: −2.85
FC Klk1b21 (1451607_PM_at): 1.57
FC Lcp1 1448160_PM_at: 1.54
FC Lpar2 1442291_PM_at: 1.93
FC Lrat (1444487_PM_at): 1.72
FC Maf (1435828_PM_at): 1.53
FC Maf (1447849_PM_s_at): 1.54
FC Myo5a (1431320_PM_a_at): −2.35
FC Myo5a (1436051_PM_at): −2.04
FC Nfia (1446742_PM_at): −1.74
FC Nqo1 (1423627_PM_at): 2.11
FC Pank1 1457110_PM_at: −1.73
FC Pank2 1452733_PM_at: −1.97
FC Pgd 1423706_PM_a_at: 2.27
FC Pgd 1438627_PM_x_at: 1.83
FC Pgd (1436771_PM_x_at): 2.03
FC Pgd (1437380_PM_x_at): 2.05
FC Phlda3 (1449002_PM_at): 1.81
FC Pigl (1440965_PM_at): 1.52
FC Pir (1429001_PM_at): 3.08
FC Ptprr (1426047_PM_a_at): 1.69
FC Rcor3 (1428343_PM_at): −1.51
FC Reep6 (1430128_PM_a_at): 1.51
FC Rnf24 1436101_PM_at: −2.01
FC Slc5a3 (1440227_PM_at): −1.50
FC Slc8a1 (1437675_PM_at): −1.86
FC Slc9a8 1454865_PM_at: −2.40
FC Slc22a14 (1440058_PM_at): 1.54
FC Slc39a8 (1448482_PM_at): −1.55
FC Slc48a1 (1450409_PM_a_at): 1.53
FC Slco2a1 (1444242_PM_at): 1.63
FC Slco4c1 (1437870_PM_at): −1.69
FC Slco4c1 (1460616_PM_at): −2.08
FC Smarca2 (1452333_PM_at): −1.60
FC Srxn1 (1425351_PM_at): 1.89
FC Srxn1 (1426875_PM_s_at): 1.91
FC Srxn1 (1451680_PM_at): 2.09
FC Tmc5 (1452934_PM_at): 1.91
FC Tmie (1443964_PM_at): 1.65
FC Trim16 (1460629_PM_at): 1.51
FC Txnrd1 (1424487_PM_x_at): 1.74
FC Vps8 (1434050_PM_at): −1.84
FC Vps8 (1454810_PM_s_at): −1.55

— US20160115540A1, “PRODRUGS AND DRUGS” (Biogen MA Inc., priority 2013, published 2016)
